Reference: patent publication US20050009124A1, “Assays for detection of phosphoinositide kinase and phosphatase activity” (Echelon Biosciences Incorporated, priority 2001, published 2005)
Read-outs that look alike come from different tables or passages of the source.

How the values were obtained:
GST-Grp1 = biological target: T1, GST-Grp1 (Homo sapiens, UniProt O43739); assay: Competition fluorogenic assay with GST-Grp1/GS-QSY 7 complex; type: binding; conditions: probe 10 nM, GST-Grp1 0.5 μM, GS-QSY 7 2.5 μM, increasing competitor
T1 sequence (O43739 1-400): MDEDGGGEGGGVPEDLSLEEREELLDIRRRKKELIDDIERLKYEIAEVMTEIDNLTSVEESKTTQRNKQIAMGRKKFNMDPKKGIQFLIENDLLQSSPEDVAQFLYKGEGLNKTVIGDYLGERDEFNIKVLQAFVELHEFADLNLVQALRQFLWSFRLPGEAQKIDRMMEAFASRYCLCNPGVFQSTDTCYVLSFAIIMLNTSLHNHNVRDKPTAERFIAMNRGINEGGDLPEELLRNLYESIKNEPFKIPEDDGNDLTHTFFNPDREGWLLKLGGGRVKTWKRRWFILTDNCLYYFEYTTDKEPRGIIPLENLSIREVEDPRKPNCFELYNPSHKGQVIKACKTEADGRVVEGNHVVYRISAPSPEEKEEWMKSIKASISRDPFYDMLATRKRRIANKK
Description: The fluorogenic assays using a glutathione quencher conjugate (e.g. GS-QSY 7) were set up in a black 384-well plate. A combination of the assay components described in detail below, including GST-Grp1, BODIPY®-FL-PI(3,4,5)P3, GS-QSY7, and phosphoinositide competitors, were incubated in the dark for 1 hour. The total reaction volume was either 25 or 50 μl in PBS (pH 7.4). The plate was then transferred to an Alpha Fusion plate reader and read with a 485/520 nm filter.
This fluorogenic assay was also specific.

GST-TAPP1 = GST-TAPP1 (Homo sapiens, UniProt Q9HB21); assay: Competitive FP assay, displacement of BODIPY-TMR-PI(3,4)P2 tracer from GST-TAPP1; type: binding
Description: (§1) In order to use these reagents in a competitive FP assay, unlabeled phosphoinositide products of an enzymatic reaction must be able to successfully compete with the labeled tracer for interaction with the binding proteins. In addition, the level of cross-reactivity of binding proteins with the phosphoinositides used as enzyme substrates should be minimal. To examine the suitability of these phosphoinositide binding proteins for this application, competition assays were performed using optimal amounts of lipid binding proteins and fluorescent tracers, mixed with increasing amounts of diC8-phosphoinositide competitors.
Similar competition assays were performed to examine the selectivity and sensitivity of PI(3,4)P2 detection by GST-TAPP1 (FIG. 10). In these assays, the concentrations of GST-TAPP1 and the fluorescently labeled phosphoinositide were held constant as the concentration of unlabeled lipid competitor was increased. […] In implementing these assays, the initial amount of PI(3,4,5)P3 substrate should be kept low enough to minimize competition.

GST-GRP1-PH = biological target: T2, GST-GRP1-PH (Homo sapiens, UniProt O43739); assay: Competitive FP assay, displacement of fluorescent tracer from GST-GRP1-PH; type: binding; conditions: displacement of BODIPY®-TMR-I(1,3,4,5)P4 tracer
T2 construct: The PH domain of GRP1 (general receptor for phosphoinositides) was used as a detector for PI(3,4,5)P3
T2 sequence (O43739 264-381 limits assumed): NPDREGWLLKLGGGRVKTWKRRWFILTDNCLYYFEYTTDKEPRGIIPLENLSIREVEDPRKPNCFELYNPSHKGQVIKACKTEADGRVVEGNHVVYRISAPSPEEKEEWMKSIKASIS
Description: as §1
The sensitivity of this approach for detecting conversion of PI(4,5)P2 to PI(3,4,5)P3 was evaluated using GST-GRP1-PH protein and FAM and BODIPY®-TMR labeled tracers. Competition assays in which both diC8-PI(3,4,5)P3 and diC8-PI(4,5)P2 were added at increasing concentrations were performed.

SMQ-Grp1 = biological target: T3, SMQ-Grp1 (Homo sapiens, UniProt O43739); assay: Competitive dequenching fluorogenic assay with SMQ-Grp1; type: binding; conditions: for change of fluorescence signal (competition): increasing amounts of competitor, compared with diC8 PI(3,4,5)P3
T3 construct: small molecular quencher (Dabcyl, QSY 7 or QSY 9); made in house
T3 sequence (O43739 1-400): T1 sequence (O43739 1-400)
Description: The fluorogenic assays were set up in a black 384-well plate. The combination of 100 nM, 10 nM and 1 nM of SMQ-Grp1 conjugate was incubated with 100 nM, 50 nM and 25 nM BODIPY®-FL-labeled PI(3,4,5)P3. The total assay volume was […] in a PBS buffer at a pH of 7.5. The assay mixture was incubated in the dark for one hour at 25° C. The plate was then transferred to an Alpha Fusion plate reader and read with a 485/520 nm filter. […] For example, if BODIPY®-FL-PI(3,4,5)P3 is fixed at 25 nM, increasing the amount of Dabcyl-Grp1 conjugate (from 1 nM to 100 nM) caused decreasing amounts of fluorescence (FIG. 24). Similar fluorescence quenching profiles were shown for QSY 7-Grp1 and QSY 9-Grp1.
The quenching effects of BODIPY®-FL-PI(3,4,5)P3 by SMQ-Grp1 were specific. diC8 PI(3,4,5)P3 as a competitor antagonized the fluorescence quenching effect of BODIPY®-FL-PI(3,4,5)P3 by SMQ-Grp1 in a dose-response manner. diC8 PI(3,4,5)P3 was used at varying concentrations to compete with BODIPY®-FL-PI(3,4,5)P3 for binding to the SMQ-Grp1 conjugate. […] In each bar graph in FIG. 25, from the right to the left, the bars show the fluorescence reading of PBS as the background, the diC8 PI(3,4,5)P3 only, the SMQ-Grp1 conjugate only, BODIPY®-FL-PI(3,4,5)P3 only, Grp1-SMQ plus BODIPY®-FL-PI(3,4,5)P3, Grp1-SMQ plus BODIPY®-FL-PI(3,4,5)P3 with 10 pmol of diC8 PI(3,4,5)P3 as the competitor, Grp1-SMQ plus BODIPY®-FL-PI(3,4,5)P3 with 100 pmol of diC8 PI(3,4,5)P3 as the competitor, Grp1-SMQ plus BODIPY®-FL-PI(3,4,5)P3 with 1000 pmol of diC8 PI(3,4,5)P3 as the competitor, and Grp1-SMQ plus BODIPY®-FL-PI(3,4,5)P3 with 10000 pmol of diC8 PI(3,4,5)P3 as competitor. […]
Fluorogenic assays were also used to compare competition of diC8 PI(3,4,5)P3 to PI(4,5)P2 and PI(3)P. With increasing amounts of PI(3,4,5)P3 the signal begins to increase, indicating competition, whereas as PI(4,5)P2 and PI(3)P show little change, indicating less competition. […] The production (or presence) of PI(3,4,5)P3 in this assay system corresponds to the elevation of the fluorescence signal.

[1] = system: PI(4,5)P2-specific LRP derived from PLCδ; assay: AlphaScreen binding and competition with PI(4,5)P2-specific LRP; conditions: biotinylated PI(4,5)P2 and PLCδ kept constant
Description: The present invention provides ALPHAScreen™ assays to detect specific binding and competition of phosphoinositide diphosphates using antibodies or LRPs. This approach can be used in competitive assays for the detection of PI(3,4)P2 and PI(4,5)P2 produced by lipid phosphatase or kinase activity. […] Increasing amounts of unlabeled PI(4,5)P2 or PI(3,4,5)P3 were added while levels of PLCδ and PI(4,5)P2 were kept constant. PI(4,5)P2 competition is approximately 90-fold greater than PI(3,4,5)P3 competition, indicating a high degree of specificity for recognition of PI(4,5)P2.

[2] = Fluorogenic assay, quenching of BODIPY-FL-PI(3,4,5)P3 by SMQ-Grp1 conjugates; type: binding
Description: The chemical modification of LRPs, e.g. Grp1, a PI(3,4,5)P3 binder, with small molecular quenchers (SMQ) has been thoroughly studied in this invention. Three SMQs, Dabcyl-SE (4-((4-(dimethylamino)phenyl)azo)benzoic acid, succinimidyl ester), QSY 7-SE (9-[2-[[4-[[(2,5-dioxo-1-pyrrolidinyl)oxy]carbonyl]-1-piperidinyl]sulfonyl]phenyl]-3,6-bis(methylphenylamino)-, chloride) and QSY 9-SE (QSY® 9 carboxylic acid, succinimidyl ester, C43H39ClN4O13S3), with diverse structures, spectral properties, hydrophobicity and solubility properties, were coupled to Grp1. Specifically, SMQ-modified Grp1 still retains its binding activity and quenches the fluorescence of BODIPY®-FL labeled PI(3,4,5)P3. With a fixed amount of BODIPY®-FL-PI(3,4,5)P3 in solution, increasing the amount of SMQ-Grp1 caused decreasing fluorescence of the PI(3,4,5)P3 fluorescent probes. At a ratio of 2:1 (QSY 7-Grp1:BODIPY®-FL-PI(3,4,5)P3), QSY 7-Grp1 quenched up to 70% of the fluorescence intensity of BODIPY®-FL PI(3,4,5)P3.
The fluorogenic assays were set up in a black 384-well plate. […] The plate was then transferred to an Alpha Fusion plate reader and read with a 485/520 nm filter. […] For example, if BODIPY®-FL-PI(3,4,5)P3 is fixed at 25 nM, increasing the amount of Dabcyl-Grp1 conjugate (from 1 nM to 100 nM) caused decreasing amounts of fluorescence (FIG. 24). […]

Sequence of GST-TAPP1 (Q9HB21 whole entry): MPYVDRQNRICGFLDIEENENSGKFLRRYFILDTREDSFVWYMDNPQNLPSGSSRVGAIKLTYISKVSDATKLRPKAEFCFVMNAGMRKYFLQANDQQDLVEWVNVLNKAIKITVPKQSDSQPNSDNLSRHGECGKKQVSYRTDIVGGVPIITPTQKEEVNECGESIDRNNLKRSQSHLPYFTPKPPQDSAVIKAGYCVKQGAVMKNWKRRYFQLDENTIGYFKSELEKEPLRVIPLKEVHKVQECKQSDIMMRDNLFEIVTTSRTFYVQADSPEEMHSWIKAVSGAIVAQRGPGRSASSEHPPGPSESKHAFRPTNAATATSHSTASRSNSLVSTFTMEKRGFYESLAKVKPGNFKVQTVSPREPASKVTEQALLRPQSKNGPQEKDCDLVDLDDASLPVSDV

CCCCCCCCCCCCCCCC(=O)OC[C@H](COP(=O)(O)OC1[C@H](O)[C@H](OP(=O)(O)O)C(OP(=O)(O)O)[C@H](OP(=O)(O)O)[C@H]1O)OC(=O)CCCCCCCCCCCCCCC (some centres unmarked) [DiC16 PI(3,4,5)P3]
effect on fluorescence of BODIPY®-FL PI(3,4,5)P3 (competition) (GST-Grp1): restored the fluorescence

CCCCCCCC(=O)OC[C@H](COP(=O)(O)O[C@H]1[C@H](O)[C@@H](O)[C@H](OP(=O)(O)O)[C@@H](OP(=O)(O)O)[C@H]1O)OC(=O)CCCCCCC [diC8-PI(3,4)P2]
IC50 (GST-TAPP1; read-out: IC50): 165 nM

CCCCCCCC(=O)OC[C@H](COP(=O)(O)OC1[C@H](O)[C@H](OP(=O)(O)O)C(OP(=O)(O)O)[C@H](OP(=O)(O)O)[C@H]1O)OC(=O)CCCCCCC (some centres unmarked) [diC8-PI(3,4,5)P3]
IC50 (GST-TAPP1; predicted, read-out: predicted IC50): 1510 nM | IC50 (GST-GRP1-PH): 218 nM | fluorescence restored, of the original (SMQ-Grp1; 10000 pmol competitor, Dabcyl-Grp1 100 nM, probe 50 nM): up to 70%

CCCCCCCCCCCCCCCC(=O)OC[C@H](COP(=O)(O)O[C@@H]1[C@H](O)[C@H](O)[C@@H](OP(=O)(O)O)[C@H](OP(=O)(O)O)[C@H]1O)OC(=O)CCCCCCCCCCCCCCC [diC16 PI(4,5)P2]
effect on fluorescence of BODIPY®-FL PI(3,4,5)P3 (competition) (GST-Grp1): only marginally increased the fluorescence at higher concentrations

PI(3)P
change of fluorescence signal (competition) (SMQ-Grp1): little change

PI(4,5)P2
competition relative to PI(3,4,5)P3 competition [1]: approximately 90 fold | change of fluorescence signal (competition) (SMQ-Grp1): little change

B1: QSY 7-Grp1: Grp1, a PI(3,4,5)P3 binder, coupled to small molecular quencher QSY 7-SE (conjugate, UniProt O43739 1-400, looked up)
Cytohesin-3: T1 sequence (O43739 1-400)
modifications: QSY 7 quencher
quenching of fluorescence intensity of BODIPY®-FL PI(3,4,5)P3 ([2]; ratio 2:1 (QSY 7-Grp1:BODIPY®-FL-PI(3,4,5)P3)): up to 70%

B2: Dabcyl-Grp1 conjugate: Grp1, a PI(3,4,5)P3 binder, coupled to small molecular quencher Dabcyl-SE (conjugate, UniProt O43739 1-400, looked up)
Cytohesin-3: T1 sequence (O43739 1-400)
modifications: Dabcyl quencher
quenching of fluorescence of BODIPY®-FL-PI(3,4,5)P3 ([2]; SMQ-Grp1 100 nM, BODIPY®-FL-PI(3,4,5)P3 50 nM): ~70%
